The record followed here is patent US11084800B2 (Achillion Pharmaceuticals, Inc., priority 2017, dated 2021).

The experiment deals with Human Factor D (Homo sapiens (Human), UniProt P00746). Briefly: Human Factor D Assay. In kind it is biochemical. To be noted: Table 6; Factor D 80 nM, substrate Z-L-Lys-SBz; read-out: IC50. The gist of the method:
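Serum-purified Factor D (80 nM final) preincubated 5 min at room temperature with compound in 50 mM Tris, 1 M NaCl, pH 7.5. Z-L-Lys-SBz and DTNB added at 100 μM each; A405 followed every 30 s for 30 min. IC50 from nonlinear regression of rates versus concentration.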

Chain of Human Factor D (P00746 26-253): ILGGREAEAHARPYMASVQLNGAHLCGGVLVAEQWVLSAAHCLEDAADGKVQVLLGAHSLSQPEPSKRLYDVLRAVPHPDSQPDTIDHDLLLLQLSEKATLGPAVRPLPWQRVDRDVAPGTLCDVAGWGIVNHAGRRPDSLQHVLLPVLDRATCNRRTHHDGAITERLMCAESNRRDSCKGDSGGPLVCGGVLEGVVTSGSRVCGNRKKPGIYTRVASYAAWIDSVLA

Usually IC50 stands for the concentration that inhibits the measured activity by half. With `C=CCOC[C@@]12C[C@@H](C(=O)Nc3nc(Br)ccc3C=C)N(C(=O)Cn3nc(C(C)=O)c4cc(-c5cnc(C)nc5)ccc43)[C@@H]1C2` [Compound 93, (1R,3S,5S)-2-(2-(3-Acetyl-5-(2-methylpyrimidin-5-yl)-1H-indazol-1-yl)acetyl)-5-((allyloxy)methyl)-N-(6-bromo-3-vinylpyridin-2-yl)-2-azabicyclo[3.1.0]hexane-3-carboxamide], the IC50 was under 1000 nM.
The same measure for `CNC[C@@]12C[C@@H](C(=O)Nc3nc(Br)ccc3C)N(C(=O)Cn3nc(C(C)=O)c4cc(-c5cnc(C)nc5)cc(C)c43)[C@@H]1C2` [Compound 94, (1R,3S,5R)-2-(2-(3-Acetyl-7-methyl-5-(2-methylpyrimidin-5-yl)-1H-indazol-1-yl)acetyl)-N-(6-bromo-3-methylpyridin-2-yl)-5-((methylamino)methyl)-2-azabicyclo[3.1.0]hexane-3-carboxamide]: under 1000 nM; for `CC(=O)c1nn(CC(=O)N2[C@H](C(=O)Nc3nc(Br)ccc3C)C[C@@]3(CNC(=O)C4=C(F)CCC4)C[C@@H]23)c2c(C)cc(-c3cnc(C)nc3)cc12` [Compound 95, (1R,3S,5R)-2-(2-(3-Acetyl-7-methyl-5-(2-methylpyrimidin-5-yl)-1H-indazol-1-yl)acetyl)-N-(6-bromo-3-methylpyridin-2-yl)-5-((2-fluorocyclopent-1-enecarboxamido)methyl)-2-azabicyclo[3.1.0]hexane-3-carboxamide]: under 1000 nM.
The result for `CC(=O)NC[C@@]12C[C@@H](C(=O)Nc3nc(Br)ccc3C)N(C(=O)Cn3nc(C(C)=O)c4cc(-c5cnc(C)nc5)cc(C)c43)[C@@H]1C2` [Compound 96, (1R,3S,5R)-5-(Acetamidomethyl)-2-(2-(3-acetyl-7-methyl-5-(2-methylpyrimidin-5-yl)-1H-indazol-1-yl)acetyl)-N-(6-bromo-3-methylpyridin-2-yl)-2-azabicyclo[3.1.0]hexane-3-carboxamide] reads under 1000 nM; that for `CC(=O)c1nn(CC(=O)N2[C@H](C(=O)Nc3nc(Br)ccc3C)C[C@@]3(CNC(=O)c4ccccc4F)C[C@@H]23)c2c(C)cc(-c3cnc(C)nc3)cc12` [Compound 97, (1R,3S,5R)-2-(2-(3-Acetyl-7-methyl-5-(2-methylpyrimidin-5-yl)-1H-indazol-1-yl)acetyl)-N-(6-bromo-3-methylpyridin-2-yl)-5-((2-fluorobenzamido)methyl)-2-azabicyclo[3.1.0]hexane-3-carboxamide], under 1000 nM; that for `COC[C@@]12C[C@@H](C(=O)Nc3nc(Br)ccc3C)N(C(=O)Cn3nc(C(C)=O)c4cc(-c5cnc(C)nc5)cc(C)c43)[C@@H]1C2` [Compound 98, (1R,3S,5S)-2-(2-(3-Acetyl-7-methyl-5-(2-methylpyrimidin-5-yl)-1H-indazol-1-yl)acetyl)-N-(6-bromo-3-methylpyridin-2-yl)-5-(methoxymethyl)-2-azabicyclo[3.1.0]hexane-3-carboxamide], under 1000 nM.
`COC(=O)N[C@H](C(=O)NC[C@@]12C[C@@H](C(=O)Nc3nc(Br)ccc3C)N(C(=O)Cn3nc(C(C)=O)c4cc(-c5cnc(C)nc5)cc(C)c43)[C@@H]1C2)C(C)C` [Compound 99, methyl ((S)-1-((((lR,3S,5R)-2-(2-(3-acetyl-7-methyl-5-(2-methylpyrimidin-5-yl)-1H-indazol-1-yl)acetyl)-3-((6-bromo-3-methylpyridin-2-yl)carbamoyl)-2-azabicyclo[3.1.0]hexan-5-yl)methyl)amino)-3-methyl-1-oxobutan-2-yl)carbamate]: the IC50 is under 1000 nM.
For `CC(=O)c1nn(CC(=O)N2[C@H](C(=O)Nc3nc(Br)ccc3C)C[C@@]3(CN(C)C)C[C@@H]23)c2c(C)cc(-c3cnc(C)nc3)cc12` [Compound 100, (1R,3S,5R)-2-(2-(3-acetyl-7-methyl-5-(2-methylpyrimidin-5-yl)-1H-indazol-1-yl)acetyl)-N-(6-bromo-3-methylpyridin-2-yl)-5-((dimethylamino)methyl)-2-azabicyclo[3.1.0]hexane-3-carboxamide], the IC50 was under 1000 nM.
For `CC(=O)c1nn(CC(=O)N2[C@H](C(=O)Nc3nc(Br)ccc3C)C[C@@]3(CNS(C)(=O)=O)C[C@@H]23)c2c(C)cc(-c3cnc(C)nc3)cc12` [Compound 101, (1R,3S,5R)-2-(2-(3-Acetyl-7-methyl-5-(2-methylpyrimidin-5-yl)-1H-indazol-1-yl)acetyl)-N-(6-bromo-3-methylpyridin-2-yl)-5-(methylsulfonamidomethyl)-2-azabicyclo[3.1.0]hexane-3-carboxamide], the IC50 was under 1000 nM.
The same measure for `CC(=O)c1nn(CC(=O)N2[C@H](C(=O)Nc3nc(Br)ccc3C)C[C@@]3(CNC(=O)CC(F)(F)F)C[C@@H]23)c2c(C)cc(-c3cnc(C)nc3)cc12` [Compound 102, (1R,3S,5R)-2-(2-(3-Acetyl-7-methyl-5-(2-methylpyrimidin-5-yl)-1H-indazol-1-yl)acetyl)-N-(6-bromo-3-methylpyridin-2-yl)-5-((3,3,3-trifluoropropanamido)methyl)-2-azabicyclo[3.1.0]hexane-3-carboxamide]: under 1000 nM; for `CC(=O)c1nn(CC(=O)N2[C@H](C(=O)Nc3nc(Br)ccc3C)C[C@@]3(C)C[C@@H]23)c2ccc(-c3cnc(CN(C)C)nc3)cc12` [Compound 103, (1R,3S,5R)-2-(2-(3-Acetyl-5-(2-((dimethylamino)methyl)pyrimidin-5-yl)-1H-indazol-1-yl)acetyl)-N-(6-bromo-3-methylpyridin-2-yl)-5-methyl-2-azabicyclo[3.1.0]hexane-3-carboxamide]: under 1000 nM.
The same measure for `CC(=O)c1nn(CC(=O)N2[C@H](C(=O)Nc3nc(Br)c(F)cc3C)C[C@@]3(C)C[C@@H]23)c2cnc(-c3cnc(C)nc3)cc12` [Compound 104, (1R,3S,5R)-2-(2-(3-Acetyl-5-(2-methylpyrimidin-5-yl)-1H-pyrazolo[3,4-c]pyridin-1-yl)acetyl)-N-(6-bromo-5-fluoro-3-methylpyridin-2-yl)-5-methyl-2-azabicyclo[3.1.0]hexane-3-carboxamide]: under 1000 nM; for `CC(=O)c1nn(CC(=O)N2[C@H](C(=O)Nc3cccc(O)n3)C[C@@]3(C)C[C@@H]23)c2c(C)cc(-c3cnc(C)nc3)cc12` [Compound 105, (1R,3S,5R)-2-(2-(3-Acetyl-7-methyl-5-(2-methylpyrimidin-5-yl)-1H-indazol-1-yl)acetyl)-N-(6-hydroxypyridin-2-yl)-5-methyl-2-azabicyclo[3.1.0]hexane-3-carboxamide]: under 1000 nM.
Consider `COc1ncc(-c2ccc3c(c2)c(C(C)=O)nn3CC(=O)N2[C@H](C(=O)Nc3cccc(Br)n3)C[C@@]3(C)C[C@@H]23)cn1` [Compound 108, (1R,3S,5R)-2-(2-(3-Acetyl-5-(2-methoxypyrimidin-5-yl)-1H-indazol-1-yl)acetyl)-N-(6-bromopyridin-2-yl)-5-methyl-2-azabicyclo[3.1.0]hexane-3-carboxamide], for which the IC50 was under 1000 nM.
In the case of `CC(=O)c1nn(CC(=O)N2C[C@H]3C[C@H]3[C@H]2C(=O)O)c2c(C)cc(-c3cnc(C)nc3)cc12` [Compound 111, (1R,2S,5S)-3-(2-(3-acetyl-7-methyl-5-(2-methylpyrimidin-5-yl)-1H-indazol-1-yl)acetyl)-3-azabicyclo[3.1.0]hexane-2-carboxylic acid], the IC50 is over 10000 nM.
The result for `CC(=O)c1nn(CC(=O)N2[C@H](C(=O)Nc3nc(Br)ccc3C3CC3)C[C@@]3(CN(C)C)C[C@@H]23)c2ccc(-c3cnc(C)nc3)cc12` [Compound 112, (1R,3S,5R)-2-(2-(3-Acetyl-5-(2-methylpyrimidin-5-yl)-1H-indazol-1-yl)acetyl)-N-(6-bromo-3-cyclopropylpyridin-2-yl)-5-((dimethylamino)methyl)-2-azabicyclo[3.1.0]hexane-3-carboxamide] reads under 1000 nM; that for `CC(=O)c1nn(CC(=O)N2[C@H](C(=O)Nc3nc(Br)ccc3C)C[C@@]3(CNCCF)C[C@@H]23)c2c(C)cc(-c3cnc(C)nc3)cc12` [Compound 113, (1R,3S,5R)-2-(2-(3-Acetyl-7-methyl-5-(2-methylpyrimidin-5-yl)-1H-indazol-1-yl)acetyl)-N-(6-bromo-3-methylpyridin-2-yl)-5-((2-fluoroethylamino)methyl)-2-azabicyclo[3.1.0]hexane-3-carboxamide], under 1000 nM; that for `COCc1cc(-c2cnc(C)nc2)cc2c(C(C)=O)nn(CC(=O)N3[C@H](C(=O)Nc4nc(Br)ccc4C)C[C@@]4(COC)C[C@@H]34)c12` [Compound 114, (1R,3S,5S)-2-(2-(3-Acetyl-7-(methoxymethyl)-5-(2-methylpyrimidin-5-yl)-1H-indazol-1-yl)acetyl)-N-(6-bromo-3-methylpyridin-2-yl)-5-(methoxymethyl)-2-azabicyclo[3.1.0]hexane-3-carboxamide], under 1000 nM.
Regarding `Cc1ncc(-c2cc(C)c3c(c2)c(C(C)O)nn3CC(=O)N2C[C@H]3C[C@H]3[C@H]2C(=O)Nc2nc(Br)ccc2C)cn1` (stereo partly drawn) [Compound 115, (1R,2S,5S)-N-(6-bromo-3-methylpyridin-2-yl)-3-(2-(3-(1-hydroxyethyl)-7-methyl-5-(2-methylpyrimidin-5-yl)-1H-indazol-1-yl)acetyl)-3-azabicyclo[3.1.0]hexane-2-carboxamide], the IC50 was in the range of 1000 to 10000 nM.
In the case of `CC(=O)c1nn(CC(=O)N2[C@H](C(=O)Nc3cc(F)cc(Br)n3)C[C@@]3(C)C[C@@H]23)c2c(C)cc(-c3cnc(C)nc3)cc12` [Compound 116, (1R,3S,5R)-2-(2-(3-Acetyl-7-methyl-5-(2-methylpyrimidin-5-yl)-1H-indazol-1-yl)acetyl)-N-(6-bromo-4-fluoropyridin-2-yl)-5-methyl-2-azabicyclo[3.1.0]hexane-3-carboxamide], the IC50 was under 1000 nM.
Turning to `CC(=O)c1nn(CC(=O)N2C[C@H](F)C[C@H]2C(=O)Nc2nc(Br)ccc2CC(=O)N(C)C)c2ccc(-c3cnc(C)nc3)cc12` [Compound 117, (2S,4R)-1-(2-(3-Acetyl-5-(2-methylpyrimidin-5-yl)-1H-indazol-1-yl)acetyl)-N-(6-bromo-3-(2-(dimethylamino)-2-oxoethyl)pyridin-2-yl)-4-fluoropyrrolidine-2-carboxamide], the IC50 is under 1000 nM.
